The supplement of paper PMC10307832

Columns and labels:
Assay in all cases: relative viability (nuclei count vs DMSO), 5 days (fraction); higher = more cells survive
[1] = compound: C1CC(C1)(C(=O)O)C(=O)O.[NH2-].[NH2-].[Pt+2] [Carboplatin]
Summary of the method: (§1)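 MetaXpress counted nuclei in 4× images of lung cancer cell lines that had been fixed, permeabilised and Hoechst-stained in one step. Before that, cells in 1536-well plates were kept overnight at 37 °C, pinned with five √10-spaced library-drug doses on vehicle-anchored plates, and cultured 5 days without medium change. Viability takes treated-well nuclei over vehicle-well nuclei and uses the median across plates. Plates were accepted only at control CV below 25% and at least one doubling.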

[2] = compound: CC[C@H](C)N1C=C(C2=C(C=C(C=C21)C3=CN=C(C=C3)N4CCNCC4)C(=O)NCC5=C(C=C(NC5=O)C)C)C [GSK126]
Summary of the method: as §1

[3] = compound: NS(=O)(=O)OC[C@@H]1C[C@@H](n2ccc3c(N[C@H]4CCc5ccccc54)ncnc32)C[C@@H]1O [MLN4924]
Summary of the method: as §1

[4] = compound: CC[C@H](C)N1C=C(C2=C(C=C(C=C21)C3=CN=C(C=C3)N4CCNCC4)C(=O)NCC5=C(C=C(NC5=O)C)C)C [GSK126] + Cc1nc(Nc2ncc(C(=O)Nc3c(C)cccc3Cl)s2)cc(N2CCN(CCO)CC2)n1 [Dasatinib] (partner 0.075 µM)
Summary of the method: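 Lung cancer cell lines in 1536-well plates got either a single drug or a fixed anchor-drug dose together with five library-drug doses (not always all listed) in √10 steps, by pin tool, on the day after seeding. Nuclei were counted after 5 days, and relative viability is the treated-to-vehicle ratio of nuclei counts. Values are medians of duplicate plates.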

Row | Cell Line | relative viability ([1]; 0.08 µM) | relative viability ([1]; 0.253 µM) | relative viability ([1]; 0.8 µM) | relative viability ([1]; 2.53 µM) | relative viability ([1]; 8 µM) | relative viability ([2]; 0.08 µM) | relative viability ([2]; 0.253 µM) | relative viability ([2]; 0.8 µM) | relative viability ([2]; 2.53 µM) | relative viability ([2]; 8 µM) | relative viability ([3]; 0.04 µM) | relative viability ([3]; 0.1265 µM) | relative viability ([3]; 0.4 µM) | relative viability ([3]; 1.265 µM) | relative viability ([3]; 4 µM) | relative viability ([4]; first compound 0.08 µM) | relative viability ([4]; first compound 0.253 µM) | relative viability ([4]; first compound 0.8 µM) | relative viability ([4]; first compound 2.53 µM) | relative viability ([4]; first compound 8 µM)
1 | 201T | 1.01 | 0.994 | 1.03 | 0.971 | 0.9 | 1.03 | 1.01 | 1.02 | 1.06 | 1.07 | 1.09 | 0.989 | 0.73 | 0.375 | 0.307 | 0.558 | 0.639 | 0.61 | 0.607 | 0.519
2 | A549 | 1.02 | 1.01 | 0.938 | 0.935 | 0.563 | 1.08 | 0.946 | 0.955 | 1.01 | 0.987 | 0.946 | 0.863 | 0.658 | 0.0802 | 0.0487 | – | – | – | – | –
3 | A-427 | 1.07 | 1 | 1 | 1.07 | 1.01 | 1.09 | 1.02 | 0.97 | 1.09 | 1.07 | 0.515 | 0.44 | 0.31 | 0.218 | 0.234 | 0.76 | 0.638 | 0.634 | 0.799 | 0.635
4 | ABC-1 | 1.04 | 0.873 | 0.985 | 0.88 | 0.587 | 1.11 | 1.03 | 0.992 | 1.15 | 1.05 | 1.06 | 0.965 | 0.384 | 0.249 | 0.283 | 0.591 | 0.544 | 0.678 | 0.535 | 0.45
5 | BEN | 1.11 | 0.969 | 0.987 | 0.904 | 0.893 | 1.1 | 0.997 | 0.914 | 1.04 | 0.924 | 0.729 | 0.627 | 0.408 | 0.197 | 0.219 | 0.3 | 0.31 | 0.295 | 0.309 | 0.325
6 | CAL-12T | 1.02 | 1.04 | 1 | 1.07 | 0.877 | 1.09 | 0.986 | 0.973 | 1.07 | 1.17 | 0.854 | 0.82 | 0.485 | 0.344 | 0.198 | 0.582 | 0.515 | 0.531 | 0.512 | 0.45
7 | COR-L23 | 0.961 | 0.928 | 0.979 | 0.759 | 0.417 | 1.1 | 1.02 | 0.944 | 0.986 | 1.02 | 0.98 | 0.882 | 0.661 | 0.233 | 0.135 | 0.594 | 0.488 | 0.488 | 0.392 | 0.415
8 | COR-L 105 | 0.975 | 0.939 | 0.845 | 0.831 | 0.52 | 1.03 | 0.87 | 0.856 | 1.02 | 0.971 | 0.775 | 0.773 | 0.431 | 0.258 | 0.336 | 0.356 | 0.331 | 0.342 | 0.288 | 0.398
